Reference: US20230133958A1, “COMPOUNDS USEFUL IN MODULATING EGFR AND PI3K” (Mekanistic Therapeutics LLC, priority 2021, published 2023)
pIC50: −log10 of the molar value. Converted amounts (≈) assume the structure as drawn.

Assays:
P13Kγ = P13Kγ (Homo sapiens, UniProt P48736); assay: Z'-LYTE / Adapta biochemical kinase assay, PI3Kγ
From the text: (§1) The Z′-LYTE® biochemical assay employs a fluorescence-based, coupled-enzyme format and is based on the differential sensitivity of phosphorylated and non-phosphorylated peptides to proteolytic cleavage. The peptide substrate is labeled with two fluorophores—one at each end—that make up a FRET pair. In the primary reaction, the kinase transfers the gamma-phosphate of ATP to a single tyrosine, serine or threonine residue in a synthetic FRET-peptide. In the secondary reaction, a site-specific protease recognizes and cleaves non-phosphorylated FRET-peptides. Phosphorylation of FRET-peptides suppresses cleavage by the Development Reagent. […] A ratiometric method, which calculates the ratio (the Emission Ratio) of donor emission to acceptor emission after excitation of the donor fluorophore at 400 nm, is used to quantitate reaction progress.
(§2) A significant benefit of this ratiometric method for quantitating reaction progress is the elimination of well-to-well variations in FRET-peptide concentration and signal intensities. […]
(§3) Both cleaved and uncleaved FRET-peptides contribute to the fluorescence signals and therefore to the Emission Ratio. The extent of phosphorylation of the FRET-peptide can be calculated from the Emission Ratio. […]

HER4 = HER4 (Homo sapiens, UniProt Q15303); assay: Z'-LYTE / Adapta biochemical kinase assay, HER4
From the text: as §1, §2, §3

PI3Kβ = PI3Kβ (Homo sapiens, UniProt P42338); assay: Z'-LYTE / Adapta biochemical kinase assay, PI3Kβ
From the text: as §1, §2, §3

[1] = Solubility assessment in aqueous media; assay type: physicochemical; settings: kinetic from dmso stock, 25° C.
Procedure: Preparation of stock solutions: The stock solutions of test compounds and control compound diclofenac were prepared in DMSO at the concentrations of 10 mM.
Procedure for solubility determination: 15 µL of stock solution (10 mM) of each sample was placed in order into their proper 96-well rack. 485 µL of (SIF, SGF, PBS 7.4, FESSIF, or FESSGF) was added into each vial of the cap-less Solubility Sample plate. The assay was performed in duplicate. Add one stir stick to each vial and seal using a molded PTFE/Silicone plug. […] After completion of the 2 hours, plugs were removed and the stir sticks were removed using a big magnet, the samples from the Solubility Sample plate were transferred into the filter plate. Using the Vacuum Manifold, all the samples were filtered. Aliquot of 5 µL and 5 µL DMSO were taken from the filtrate followed by addition of 490 µL of a mixture of H2O and acetonitrile containing internal standard (1:1). A certain proportion of ultrapure water was used to dilute the diluent according to the peak shape. The dilution factor was changed according to the solubility values and the LC-MS signal response.
Preparation of 300 µM standards (STD): From the 10 mM DMSO STD plate, 6 µL was transferred into the remaining empty plate, and then 194 µL of DMSO was added to that plate to have a STD concentration of 300 µM. From the 300 µM DMSO STD plate, 5 µL DMSO STD and 5 µL SIF was transferred into the remaining empty plate, and then 490 µL of a mixture of H2O and acetonitrile containing internal standard (1:1) was added to that plate to have a final STD concentration of 3 µM. […]
Procedure for sample analysis: The plate was placed into the well plate autosampler. The samples were evaluated by LC-MS/MS analysis.
Data analysis: All calculations were carried out using Microsoft Excel. The filtrate was analyzed and quantified against a standard of known concentration using LC coupled with mass spectral peak identification and quantitation. Solubility values of the test compound and control compound were calculated as follows: […]

MTOR = MTOR (Homo sapiens, UniProt P42345); assay: Z'-LYTE / Adapta biochemical kinase assay, MTOR
From the text: as §1, §2, §3

HER4, sequence (Q15303 26-1308): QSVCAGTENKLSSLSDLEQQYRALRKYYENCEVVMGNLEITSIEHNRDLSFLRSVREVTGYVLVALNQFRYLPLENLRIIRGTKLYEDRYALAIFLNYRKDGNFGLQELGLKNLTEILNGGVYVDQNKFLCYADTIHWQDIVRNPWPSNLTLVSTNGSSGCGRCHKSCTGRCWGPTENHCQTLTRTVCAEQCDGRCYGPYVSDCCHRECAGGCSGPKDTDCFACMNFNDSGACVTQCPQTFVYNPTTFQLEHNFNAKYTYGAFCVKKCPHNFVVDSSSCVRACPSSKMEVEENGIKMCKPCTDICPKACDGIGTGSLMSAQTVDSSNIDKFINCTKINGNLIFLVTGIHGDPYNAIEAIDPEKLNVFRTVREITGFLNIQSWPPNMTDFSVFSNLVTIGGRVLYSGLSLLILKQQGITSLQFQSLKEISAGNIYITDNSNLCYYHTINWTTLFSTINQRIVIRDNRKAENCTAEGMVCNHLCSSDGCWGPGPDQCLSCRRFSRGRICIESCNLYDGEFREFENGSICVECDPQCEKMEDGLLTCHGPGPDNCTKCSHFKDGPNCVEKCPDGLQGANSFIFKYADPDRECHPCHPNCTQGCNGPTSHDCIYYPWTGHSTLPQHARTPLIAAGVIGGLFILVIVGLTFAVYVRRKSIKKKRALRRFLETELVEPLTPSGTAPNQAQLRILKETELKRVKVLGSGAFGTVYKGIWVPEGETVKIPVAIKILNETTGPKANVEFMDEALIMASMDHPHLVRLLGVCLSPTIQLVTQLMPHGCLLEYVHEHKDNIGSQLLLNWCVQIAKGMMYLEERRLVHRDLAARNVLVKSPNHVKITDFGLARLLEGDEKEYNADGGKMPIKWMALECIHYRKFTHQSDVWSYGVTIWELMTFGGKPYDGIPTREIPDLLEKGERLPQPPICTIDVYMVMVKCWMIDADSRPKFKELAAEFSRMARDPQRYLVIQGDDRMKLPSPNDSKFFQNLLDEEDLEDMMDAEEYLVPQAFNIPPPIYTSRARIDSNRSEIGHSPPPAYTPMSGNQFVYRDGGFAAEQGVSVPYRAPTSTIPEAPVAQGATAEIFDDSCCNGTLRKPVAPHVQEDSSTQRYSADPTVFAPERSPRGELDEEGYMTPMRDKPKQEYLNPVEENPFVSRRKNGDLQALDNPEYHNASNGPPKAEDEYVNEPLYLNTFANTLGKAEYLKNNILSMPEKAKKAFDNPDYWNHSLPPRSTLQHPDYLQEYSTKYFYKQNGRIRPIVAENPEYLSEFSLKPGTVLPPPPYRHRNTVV
P13Kγ, sequence (P48736 whole entry, stated change not applied): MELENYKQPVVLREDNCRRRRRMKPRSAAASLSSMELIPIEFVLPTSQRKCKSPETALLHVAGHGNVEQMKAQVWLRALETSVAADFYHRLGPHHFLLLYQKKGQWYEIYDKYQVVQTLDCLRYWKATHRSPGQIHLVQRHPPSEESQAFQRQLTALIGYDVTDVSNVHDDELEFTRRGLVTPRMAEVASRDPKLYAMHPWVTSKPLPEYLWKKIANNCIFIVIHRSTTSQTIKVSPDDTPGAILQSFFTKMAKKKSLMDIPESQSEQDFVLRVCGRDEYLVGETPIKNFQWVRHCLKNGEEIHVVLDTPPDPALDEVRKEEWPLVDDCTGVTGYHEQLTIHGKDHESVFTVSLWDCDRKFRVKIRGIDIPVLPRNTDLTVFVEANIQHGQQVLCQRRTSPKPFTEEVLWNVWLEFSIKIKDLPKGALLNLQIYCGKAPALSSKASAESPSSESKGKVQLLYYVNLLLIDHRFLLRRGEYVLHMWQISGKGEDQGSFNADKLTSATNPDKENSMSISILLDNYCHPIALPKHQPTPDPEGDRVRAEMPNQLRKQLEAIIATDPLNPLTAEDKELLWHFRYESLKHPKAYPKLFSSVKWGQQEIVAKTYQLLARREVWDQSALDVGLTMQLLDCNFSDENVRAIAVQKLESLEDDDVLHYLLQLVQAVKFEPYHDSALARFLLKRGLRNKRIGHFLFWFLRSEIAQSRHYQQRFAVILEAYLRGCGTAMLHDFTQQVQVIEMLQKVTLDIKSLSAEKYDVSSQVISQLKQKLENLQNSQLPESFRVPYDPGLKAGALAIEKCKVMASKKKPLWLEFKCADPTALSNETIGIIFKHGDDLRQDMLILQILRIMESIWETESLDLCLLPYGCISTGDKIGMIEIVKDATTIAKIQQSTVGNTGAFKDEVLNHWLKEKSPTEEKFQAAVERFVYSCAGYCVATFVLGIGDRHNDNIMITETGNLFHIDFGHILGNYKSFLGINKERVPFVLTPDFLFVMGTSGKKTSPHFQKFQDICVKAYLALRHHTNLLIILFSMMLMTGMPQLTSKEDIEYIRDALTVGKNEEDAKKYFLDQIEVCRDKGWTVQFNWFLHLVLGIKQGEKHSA
PI3Kβ, sequence (P42338 whole entry): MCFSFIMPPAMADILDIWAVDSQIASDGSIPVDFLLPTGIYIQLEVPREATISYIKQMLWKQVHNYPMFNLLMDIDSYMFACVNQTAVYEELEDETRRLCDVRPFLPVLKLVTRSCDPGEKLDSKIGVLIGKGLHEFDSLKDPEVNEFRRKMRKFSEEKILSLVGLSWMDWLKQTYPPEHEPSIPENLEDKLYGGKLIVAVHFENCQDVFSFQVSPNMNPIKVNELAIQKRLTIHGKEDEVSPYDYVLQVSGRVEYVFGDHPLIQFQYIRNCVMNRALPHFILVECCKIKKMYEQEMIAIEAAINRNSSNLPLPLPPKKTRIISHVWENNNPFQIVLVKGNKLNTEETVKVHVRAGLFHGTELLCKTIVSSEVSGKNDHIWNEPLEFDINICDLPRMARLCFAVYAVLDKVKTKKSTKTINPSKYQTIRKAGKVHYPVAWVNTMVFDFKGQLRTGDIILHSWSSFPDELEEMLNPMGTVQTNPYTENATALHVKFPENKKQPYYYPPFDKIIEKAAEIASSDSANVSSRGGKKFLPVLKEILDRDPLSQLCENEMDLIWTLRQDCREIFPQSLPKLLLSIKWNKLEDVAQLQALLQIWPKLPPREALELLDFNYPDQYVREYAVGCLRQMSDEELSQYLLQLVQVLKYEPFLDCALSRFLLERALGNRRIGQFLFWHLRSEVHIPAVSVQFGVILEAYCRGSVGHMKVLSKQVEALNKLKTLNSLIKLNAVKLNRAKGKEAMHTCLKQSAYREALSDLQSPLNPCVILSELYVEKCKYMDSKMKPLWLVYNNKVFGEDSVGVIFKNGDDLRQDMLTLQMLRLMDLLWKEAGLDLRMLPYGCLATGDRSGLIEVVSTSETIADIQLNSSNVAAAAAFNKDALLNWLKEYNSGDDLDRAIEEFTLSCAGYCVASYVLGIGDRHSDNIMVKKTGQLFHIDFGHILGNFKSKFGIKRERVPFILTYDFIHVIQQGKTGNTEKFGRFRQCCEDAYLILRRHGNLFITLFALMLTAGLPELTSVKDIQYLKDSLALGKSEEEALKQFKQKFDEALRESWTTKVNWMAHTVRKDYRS
PI3Kβ, sequence (P27986 whole entry partner): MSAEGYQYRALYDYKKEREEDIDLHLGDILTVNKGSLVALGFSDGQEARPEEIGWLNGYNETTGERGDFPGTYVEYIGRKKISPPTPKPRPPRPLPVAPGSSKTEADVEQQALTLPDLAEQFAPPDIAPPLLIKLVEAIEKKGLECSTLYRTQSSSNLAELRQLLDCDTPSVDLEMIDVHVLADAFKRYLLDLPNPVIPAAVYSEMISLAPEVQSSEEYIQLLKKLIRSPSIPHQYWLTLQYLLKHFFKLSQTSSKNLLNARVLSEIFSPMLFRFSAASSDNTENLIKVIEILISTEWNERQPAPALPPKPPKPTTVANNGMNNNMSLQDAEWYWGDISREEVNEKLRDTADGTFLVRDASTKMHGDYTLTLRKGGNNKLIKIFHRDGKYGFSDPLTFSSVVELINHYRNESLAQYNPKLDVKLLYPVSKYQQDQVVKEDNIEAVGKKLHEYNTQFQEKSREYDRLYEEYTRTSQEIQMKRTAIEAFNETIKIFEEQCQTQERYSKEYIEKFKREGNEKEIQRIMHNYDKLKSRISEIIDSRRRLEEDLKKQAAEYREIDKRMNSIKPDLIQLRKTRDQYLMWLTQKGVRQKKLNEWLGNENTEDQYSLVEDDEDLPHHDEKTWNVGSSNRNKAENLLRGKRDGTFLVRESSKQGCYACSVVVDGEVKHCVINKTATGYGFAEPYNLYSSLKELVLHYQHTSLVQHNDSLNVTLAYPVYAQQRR

Question: What does the source list for `CS(=O)(=O)Nc1cc(-c2ccc3ncnc(Nc4cccc(Cl)c4F)c3c2)cnc1Cl` [Compound 6, N-[2-chloro-5-[4-(3-chloro-2-fluoro-anilino)quinazolin-6-yl]-3-pyridyl] methanesulfonamide]?
Answer: pIC50 (P13Kγ): ≥ 8.70; pIC50 (HER4): < 6.70; pIC50 (PI3Kβ): 6.70 to 7.70; solubility at 2 h ([1]; PBS pH 7.4, aqueous buffer, pH 7.4 Buffer): 5 to 100 µM (≈ 2.39 to 47.8 µg/mL); solubility at 2 h ([1]; fassgf or other biorelevant, Simulated Intestinal Fluid (SIF)): 5 to 100 µM (≈ 2.39 to 47.8 µg/mL); solubility at 2 h ([1]; Simulated Gastric Fluid (SGF)): > 200 µM; pIC50 (MTOR): 7.70 to 8.70
